Tests used:
[1] = molecular target: T1, Plk1 PBD (Homo sapiens, UniProt P53350); assay: Fluorescence polarization assay, Plk1 PBD / FITC-Poloboxtide; assay type: binding
T1 construct: (326-603 aa), Plk2 (355-685 aa), and Plk3 (335-646 aa); 6xHis (N); 6xHis (C); made in house; host or cells: E. coli Rosetta BL21(DE3)
Description: FP assay was performed as follow. […] We calculated the percentage of inhibition for each sample as follows: Inhibition(%)=Negative−Sample/Negative−Positive×100%
We plotted the inhibition values and determined IC50 using GraphPad Prism5.0. Together with the FITC-labeled peptides used for Plk1 PBD as mentioned above, the following peptides were used for specificity assays, FITC-GPMQTSpTPKNG-OH (Plk2 PBD), FITC-GPLATSpTPKNG-OH (Plk3 PBD).

[2] = system: HeLa; assay: MTT assay; assay type: cell-based; conditions: Homo sapiens, Cervix, tumor, read-out: IC50 proliferation
Description: (§1) The MTT assay was performed as described. In brief, cells were seeded at 3000~5000 cells/well into 96-well plates (200 μL/well) and incubated overnight. We replaced the growth medium with fresh medium containing T521 at several concentrations (two-fold dilutions and the initial concentration is 50 μM, 10 reactions total). After further incubation for 48 hrs in the presence of T521, the medium was removed from all wells and the cells were incubated with 200 μL of fresh medium for additional 24 hrs. We then added 22 μL of MTT solution (Amresco; 5 mg/mL in PBS) to each well and incubated the plate for 4 hrs at 37°C. After removing the medium, we dissolved the purple MTT-formazan crystals by adding 150 μL of DMSO to each well and recorded absorbance at 560 nm by Envision Multilabel Reader (PerkinElmer). The inhibition curve was plotted to determine the IC50 of various cell lines using GraphPad Prism5.0.

[3] = system: L02; assay: MTT assay; assay type: cell-based; conditions: Homo sapiens; L02, Liver, normal; read-out: IC50 proliferation
Description: as §1

[4] = system: SH-SY5Y; assay: MTT assay; assay type: cell-based; conditions: Homo sapiens, Brain, tumor, read-out: IC50 proliferation
Description: as §1

[5] = system: HCT-116; assay: MTT assay; assay type: cell-based; conditions: Homo sapiens; HCT-116, Colon, tumor; read-out: IC50 proliferation
Description: as §1

[6] = system: Bel7402; assay: MTT assay; assay type: cell-based; conditions: Homo sapiens, Bel-7402; Bel7402, Liver, tumor; read-out: IC50 proliferation
Description: as §1

[7] = system: HT29; assay: MTT assay; assay type: cell-based; conditions: Homo sapiens, HT-29; HT29, Colon, tumor; read-out: IC50 proliferation
Description: as §1

[8] = system: PC3; assay: MTT assay; assay type: cell-based; conditions: Homo sapiens, PC-3; PC3, Prostate, tumor; read-out: IC50 proliferation
Description: as §1

[9] = system: MRC-5; assay: MTT assay; assay type: cell-based; conditions: Homo sapiens, MRC5; MRC-5, Lung, normal; read-out: IC50 proliferation
Description: as §1

[10] = system: HepG2; assay: MTT assay; assay type: cell-based; conditions: Homo sapiens; HepG2, Liver, tumor; read-out: IC50 proliferation
Description: as §1

[11] = system: SaOS-2; assay: MTT assay; assay type: cell-based; conditions: Homo sapiens; SaOS-2, Bone, tumor; read-out: IC50 proliferation
Description: as §1

[12] = system: U-2OS; assay: MTT assay; assay type: cell-based; conditions: Homo sapiens, U2OS, Bone, tumor, read-out: IC50 proliferation
Description: as §1

[13] = system: A549; assay: MTT assay; assay type: cell-based; conditions: Homo sapiens; A549, Lung, tumor; read-out: IC50 proliferation
Description: as §1

[14] = system: MG63; assay: MTT assay; assay type: cell-based; conditions: Homo sapiens, MG-63; MG63, Bone, tumor; read-out: IC50 proliferation
Description: as §1

[15] = system: HEK-293; assay: MTT assay; assay type: cell-based; conditions: Homo sapiens, HEK293; HEK-293, Kidney, normal; read-out: IC50 proliferation
Description: as §1

[16] = system: MCF-7; assay: MTT assay; assay type: cell-based; conditions: Homo sapiens, MCF7; MCF-7, Breast, tumor; read-out: IC50 proliferation
Description: as §1

[17] = molecular target: T2, Plk2 (Homo sapiens, UniProt Q9NYY3); assay: HPLC-Q-TOF mass spectrometry of intact protein after incubation; assay type: binding; conditions: Plk2 10 μM, T521 500 μM, RT, 30 min
T2 construct: purchased Sino Biological Inc
T2 sequence (Q9NYY3 whole entry): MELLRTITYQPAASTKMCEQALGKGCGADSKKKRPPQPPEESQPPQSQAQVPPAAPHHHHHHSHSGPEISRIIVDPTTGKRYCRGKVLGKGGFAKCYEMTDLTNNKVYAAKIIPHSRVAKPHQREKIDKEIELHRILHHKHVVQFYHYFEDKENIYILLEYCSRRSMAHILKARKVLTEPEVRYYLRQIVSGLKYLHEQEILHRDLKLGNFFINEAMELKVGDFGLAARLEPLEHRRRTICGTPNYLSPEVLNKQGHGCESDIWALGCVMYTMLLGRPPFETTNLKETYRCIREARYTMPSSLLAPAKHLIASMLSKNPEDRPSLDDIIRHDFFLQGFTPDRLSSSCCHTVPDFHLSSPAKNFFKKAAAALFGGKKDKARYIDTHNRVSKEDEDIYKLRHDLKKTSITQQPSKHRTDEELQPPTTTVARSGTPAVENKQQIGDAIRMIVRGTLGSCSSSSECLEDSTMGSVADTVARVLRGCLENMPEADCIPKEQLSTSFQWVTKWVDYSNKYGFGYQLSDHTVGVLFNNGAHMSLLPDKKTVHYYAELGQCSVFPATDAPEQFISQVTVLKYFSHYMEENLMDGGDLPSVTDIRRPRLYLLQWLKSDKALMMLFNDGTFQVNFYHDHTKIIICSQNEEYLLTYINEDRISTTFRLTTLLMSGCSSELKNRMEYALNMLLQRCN
Description: (§2) The covalent binding mode was speculated from the interactions between Poloxin, TQ and Plk1 PBD [23]. […] To test this possibility, we incubated purified Plk1 (10 μM) with T521 (500 μM) in 50 mM Tris-HCl (pH8.0) at room temperature for 30 min. […] In contrast, no addition of T521 to Plk2 or Plk3 was detected after their incubation with T521 (Supplementary Figure S1C, S1D, S1E and S1F).
(§3) Supplementary Figure S1: Analysis of binding mode between T521 and Plk1-3 using HPLC-Q-TOF MS. Plk1-3 (10 μM) proteins were incubated with or without T521 (500 μM) in 50 mM Tris-HCl (pH8.0) at RT for 30 min. The desalted samples (5 μg) were eluted with an HPLC gradient program into a Q-TOF mass spectrometer (Agilent, USA). Mass spectra were obtained after deconvolution.
(§4) A, C, E. The analysis of Plk1-3 proteins after incubation in the absence of T521. B, D, F. The analysis of Plk1-3 proteins after incubation […]
(§5) (also on this page, place not known: www.impactjournals.com/oncotarget/ Oncotarget, Materials 2016 Supplementary) […]

[18] = molecular target: T3, Plk3 (Homo sapiens, UniProt Q9H4B4); assay: as above; assay type: binding; conditions: Plk3 10 μM, T521 500 μM, RT, 30 min
T3 construct: purchased Sino Biological Inc
T3 sequence (Q9H4B4 whole entry): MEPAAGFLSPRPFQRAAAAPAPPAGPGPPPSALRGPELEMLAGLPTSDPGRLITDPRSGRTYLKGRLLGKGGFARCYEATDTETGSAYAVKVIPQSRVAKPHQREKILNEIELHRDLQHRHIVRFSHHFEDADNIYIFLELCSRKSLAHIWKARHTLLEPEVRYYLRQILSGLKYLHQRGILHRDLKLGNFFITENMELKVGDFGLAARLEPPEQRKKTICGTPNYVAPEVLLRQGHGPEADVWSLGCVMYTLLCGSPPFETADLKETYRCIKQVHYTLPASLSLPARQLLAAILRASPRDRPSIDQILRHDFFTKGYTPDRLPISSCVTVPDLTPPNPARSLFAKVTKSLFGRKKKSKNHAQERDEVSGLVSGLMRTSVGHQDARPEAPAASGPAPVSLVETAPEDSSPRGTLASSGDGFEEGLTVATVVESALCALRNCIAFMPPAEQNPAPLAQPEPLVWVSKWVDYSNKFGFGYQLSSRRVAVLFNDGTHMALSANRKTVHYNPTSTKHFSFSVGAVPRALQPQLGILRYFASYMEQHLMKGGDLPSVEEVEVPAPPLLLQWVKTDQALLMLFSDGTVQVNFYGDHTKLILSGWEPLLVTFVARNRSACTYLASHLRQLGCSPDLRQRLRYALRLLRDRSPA
Description: as §2, §3, §4, §5

[19] = molecular target: T4, Plk1 (Homo sapiens, UniProt P53350); assay: as above; assay type: binding; conditions: Plk1 10 μM, T521 500 μM, 50 mM Tris-HCl pH8.0, RT, 30 min
T4 construct: purchased Sino Biological Inc
T4 sequence (P53350 whole entry): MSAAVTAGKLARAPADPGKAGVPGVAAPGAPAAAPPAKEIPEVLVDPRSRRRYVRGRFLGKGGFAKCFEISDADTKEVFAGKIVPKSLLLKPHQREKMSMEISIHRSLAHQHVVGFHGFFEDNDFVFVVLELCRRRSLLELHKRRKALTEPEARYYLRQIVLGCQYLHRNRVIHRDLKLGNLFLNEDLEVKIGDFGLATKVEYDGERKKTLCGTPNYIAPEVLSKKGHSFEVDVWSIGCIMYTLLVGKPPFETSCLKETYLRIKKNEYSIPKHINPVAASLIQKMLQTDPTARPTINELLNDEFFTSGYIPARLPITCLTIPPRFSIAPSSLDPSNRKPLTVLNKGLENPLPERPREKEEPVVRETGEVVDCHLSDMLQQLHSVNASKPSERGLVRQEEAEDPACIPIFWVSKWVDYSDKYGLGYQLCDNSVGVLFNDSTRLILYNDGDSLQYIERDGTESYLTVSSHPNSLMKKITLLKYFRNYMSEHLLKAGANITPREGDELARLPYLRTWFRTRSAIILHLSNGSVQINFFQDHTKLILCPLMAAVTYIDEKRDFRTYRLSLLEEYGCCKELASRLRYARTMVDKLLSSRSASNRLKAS
Description: as §2, §3, §4, §5

T1 sequence (P53350 326-603): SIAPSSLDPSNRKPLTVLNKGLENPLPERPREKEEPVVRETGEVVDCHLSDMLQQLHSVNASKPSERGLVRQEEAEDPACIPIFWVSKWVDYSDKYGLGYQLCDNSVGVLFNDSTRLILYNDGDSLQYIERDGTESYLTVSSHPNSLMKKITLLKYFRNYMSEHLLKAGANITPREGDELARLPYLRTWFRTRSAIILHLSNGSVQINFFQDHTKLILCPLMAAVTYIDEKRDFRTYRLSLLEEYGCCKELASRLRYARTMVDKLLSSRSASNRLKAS

SMILES: CCS(=O)(=O)c1oc(-c2ccc(F)cc2)nc1S(=O)(=O)c1ccccc1 [T521, 5-(ethylsulfonyl)-2-(4-fluorophenyl)-4-(phenylsulfonyl) oxazole]
- temperature dependence of inhibition of Plk1 PBD / FITC-Poloboxtide interaction ([1]; 1 hr incubation at indicated temperatures): more efficient at higher temperatures
- IC50 ([1]; Plk1 PBD, FP assay, 1 hr preincubation at RT, read-out: Apparent IC50): 1.22 ± 0.13 µM
- time dependence of inhibition of Plk1 PBD / FITC-Poloboxtide interaction ([1]; incubation for indicated times at RT): inhibition increased over time
- IC50 [2]: 4.43 µM
- IC50 [3]: 7.11 µM
- IC50 [4]: 1.37 µM
- IC50 [5]: 3.55 µM
- IC50 [6]: 5.13 µM
- IC50 [7]: 3.86 µM
- IC50 [8]: 1.09 µM
- IC50 [9]: 2.64 µM
- IC50 [10]: 3.17 µM
- IC50 [11]: 1.56 µM
- IC50 [12]: 1.06 µM
- IC50 [13]: 3.56 µM
- IC50 [14]: 6.25 µM
- IC50 [15]: 8.66 µM
- IC50 [16]: 1.58 µM
- covalent addition to protein [17]: no addition
- covalent addition to protein [18]: no addition
- increase of intact mass of protein (covalent addition) [19]: 907.05 Da

From publication PMC5352051, “Identification of a novel Polo-like kinase 1 inhibitor that specifically blocks the functions of Polo-Box domain” (Oncotarget, 2016)
